ChEMBL document CHEMBL5291721, “A preclinical secondary pharmacology resource illuminates target-adverse drug reaction associations of marketed drugs” (Nat Commun, 2023)

Key:
D(1B) dopamine receptor = D(1B) dopamine receptor (Homo sapiens, UniProt P21918)
D(4) dopamine receptor = target: T1, D(4) dopamine receptor (Homo sapiens, UniProt P21917)
T1 sequence (P21917 whole entry): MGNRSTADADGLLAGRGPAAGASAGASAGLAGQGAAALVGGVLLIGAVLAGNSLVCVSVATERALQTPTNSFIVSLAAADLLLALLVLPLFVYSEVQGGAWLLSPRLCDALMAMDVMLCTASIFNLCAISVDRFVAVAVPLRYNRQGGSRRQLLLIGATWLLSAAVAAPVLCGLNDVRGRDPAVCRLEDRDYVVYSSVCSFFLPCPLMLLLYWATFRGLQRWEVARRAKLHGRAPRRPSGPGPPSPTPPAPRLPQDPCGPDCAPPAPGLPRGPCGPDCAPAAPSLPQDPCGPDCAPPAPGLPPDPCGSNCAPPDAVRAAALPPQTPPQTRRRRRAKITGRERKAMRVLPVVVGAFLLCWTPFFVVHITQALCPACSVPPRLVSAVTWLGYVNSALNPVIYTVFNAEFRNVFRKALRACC

Substance-K receptor = target: T2, Substance-K receptor (Homo sapiens, UniProt P21452)
T2 sequence (P21452 whole entry): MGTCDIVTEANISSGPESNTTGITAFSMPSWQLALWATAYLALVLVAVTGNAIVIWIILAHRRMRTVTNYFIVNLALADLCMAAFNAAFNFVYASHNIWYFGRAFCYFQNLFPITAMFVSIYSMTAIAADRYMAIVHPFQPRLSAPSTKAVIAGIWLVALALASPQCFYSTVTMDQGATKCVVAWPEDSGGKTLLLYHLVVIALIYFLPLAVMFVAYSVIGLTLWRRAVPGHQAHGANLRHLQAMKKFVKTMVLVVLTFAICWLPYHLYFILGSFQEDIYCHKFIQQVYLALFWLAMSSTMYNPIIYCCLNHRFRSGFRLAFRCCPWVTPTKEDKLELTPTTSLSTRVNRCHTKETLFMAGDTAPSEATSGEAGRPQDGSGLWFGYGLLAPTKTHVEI

[1] = target: T3, Muscarinic acetylcholine receptor M5 (Homo sapiens, UniProt P08912)
T3 sequence (P08912 whole entry): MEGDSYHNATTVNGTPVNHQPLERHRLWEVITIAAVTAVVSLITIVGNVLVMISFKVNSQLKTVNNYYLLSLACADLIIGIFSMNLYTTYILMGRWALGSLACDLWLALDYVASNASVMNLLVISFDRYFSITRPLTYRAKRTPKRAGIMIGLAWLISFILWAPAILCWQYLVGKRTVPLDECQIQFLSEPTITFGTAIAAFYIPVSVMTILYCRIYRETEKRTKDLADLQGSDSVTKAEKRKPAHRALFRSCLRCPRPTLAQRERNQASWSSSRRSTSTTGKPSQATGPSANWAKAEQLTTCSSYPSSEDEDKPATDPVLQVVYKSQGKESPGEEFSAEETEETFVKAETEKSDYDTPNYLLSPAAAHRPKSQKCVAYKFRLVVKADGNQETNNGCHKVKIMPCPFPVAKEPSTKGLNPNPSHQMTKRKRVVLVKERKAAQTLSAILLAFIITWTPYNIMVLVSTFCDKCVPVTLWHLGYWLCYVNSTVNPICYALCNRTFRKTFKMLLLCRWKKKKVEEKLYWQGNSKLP

[2] = target: 5-hydroxytryptamine receptor 5A (Homo sapiens, UniProt P47898)
5-hydroxytryptamine receptor 5A, sequence (P47898 whole entry): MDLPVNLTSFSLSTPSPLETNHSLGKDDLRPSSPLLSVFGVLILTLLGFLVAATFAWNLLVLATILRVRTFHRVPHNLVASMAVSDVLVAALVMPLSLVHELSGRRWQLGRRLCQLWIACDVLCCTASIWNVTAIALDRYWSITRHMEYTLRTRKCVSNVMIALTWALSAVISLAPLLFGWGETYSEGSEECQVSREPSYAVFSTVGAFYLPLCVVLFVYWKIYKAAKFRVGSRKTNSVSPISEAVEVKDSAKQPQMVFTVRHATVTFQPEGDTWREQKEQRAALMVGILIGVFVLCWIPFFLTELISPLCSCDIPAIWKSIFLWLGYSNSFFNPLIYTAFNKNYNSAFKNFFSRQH

[3] = target: Beta-1 adrenergic receptor (Homo sapiens, UniProt P08588); assay type: functional, cell-based
Beta-1 adrenergic receptor, sequence (P08588 whole entry): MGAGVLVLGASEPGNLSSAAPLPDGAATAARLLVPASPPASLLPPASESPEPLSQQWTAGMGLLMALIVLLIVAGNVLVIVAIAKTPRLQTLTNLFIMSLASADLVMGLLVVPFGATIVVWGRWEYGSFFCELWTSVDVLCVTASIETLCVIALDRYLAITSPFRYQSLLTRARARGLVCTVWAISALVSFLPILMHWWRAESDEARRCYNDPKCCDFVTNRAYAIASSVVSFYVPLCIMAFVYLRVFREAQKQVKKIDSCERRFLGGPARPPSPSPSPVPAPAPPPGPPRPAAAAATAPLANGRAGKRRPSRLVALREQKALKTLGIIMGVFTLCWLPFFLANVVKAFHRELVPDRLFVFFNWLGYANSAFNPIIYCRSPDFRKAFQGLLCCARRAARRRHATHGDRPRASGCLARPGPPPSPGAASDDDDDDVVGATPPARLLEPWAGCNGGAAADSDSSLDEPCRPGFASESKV

Histamine H1 receptor [4] = target: T4, Histamine H1 receptor (Homo sapiens, UniProt P35367); assay type: functional, cell-based
T4 sequence (P35367 whole entry): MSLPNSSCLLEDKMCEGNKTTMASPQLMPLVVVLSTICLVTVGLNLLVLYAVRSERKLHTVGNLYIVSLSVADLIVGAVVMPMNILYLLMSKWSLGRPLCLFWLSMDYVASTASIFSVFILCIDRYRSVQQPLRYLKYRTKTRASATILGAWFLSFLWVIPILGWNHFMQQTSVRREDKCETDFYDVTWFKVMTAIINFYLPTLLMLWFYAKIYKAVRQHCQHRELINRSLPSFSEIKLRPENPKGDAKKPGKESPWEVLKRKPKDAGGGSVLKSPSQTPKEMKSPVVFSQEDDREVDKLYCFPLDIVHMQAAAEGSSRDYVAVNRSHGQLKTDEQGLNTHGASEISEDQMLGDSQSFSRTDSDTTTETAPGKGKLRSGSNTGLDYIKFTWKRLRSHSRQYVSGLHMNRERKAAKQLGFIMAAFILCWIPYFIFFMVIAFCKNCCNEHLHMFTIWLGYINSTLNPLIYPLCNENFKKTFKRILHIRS

Histamine H1 receptor [5] = target: T4, Histamine H1 receptor; assay type: functional, cell-based; remark: listed apart in the source
Androgen receptor = target: T5, Androgen receptor (Rattus norvegicus, UniProt P15207); assay type: functional
T5 sequence (P15207 whole entry): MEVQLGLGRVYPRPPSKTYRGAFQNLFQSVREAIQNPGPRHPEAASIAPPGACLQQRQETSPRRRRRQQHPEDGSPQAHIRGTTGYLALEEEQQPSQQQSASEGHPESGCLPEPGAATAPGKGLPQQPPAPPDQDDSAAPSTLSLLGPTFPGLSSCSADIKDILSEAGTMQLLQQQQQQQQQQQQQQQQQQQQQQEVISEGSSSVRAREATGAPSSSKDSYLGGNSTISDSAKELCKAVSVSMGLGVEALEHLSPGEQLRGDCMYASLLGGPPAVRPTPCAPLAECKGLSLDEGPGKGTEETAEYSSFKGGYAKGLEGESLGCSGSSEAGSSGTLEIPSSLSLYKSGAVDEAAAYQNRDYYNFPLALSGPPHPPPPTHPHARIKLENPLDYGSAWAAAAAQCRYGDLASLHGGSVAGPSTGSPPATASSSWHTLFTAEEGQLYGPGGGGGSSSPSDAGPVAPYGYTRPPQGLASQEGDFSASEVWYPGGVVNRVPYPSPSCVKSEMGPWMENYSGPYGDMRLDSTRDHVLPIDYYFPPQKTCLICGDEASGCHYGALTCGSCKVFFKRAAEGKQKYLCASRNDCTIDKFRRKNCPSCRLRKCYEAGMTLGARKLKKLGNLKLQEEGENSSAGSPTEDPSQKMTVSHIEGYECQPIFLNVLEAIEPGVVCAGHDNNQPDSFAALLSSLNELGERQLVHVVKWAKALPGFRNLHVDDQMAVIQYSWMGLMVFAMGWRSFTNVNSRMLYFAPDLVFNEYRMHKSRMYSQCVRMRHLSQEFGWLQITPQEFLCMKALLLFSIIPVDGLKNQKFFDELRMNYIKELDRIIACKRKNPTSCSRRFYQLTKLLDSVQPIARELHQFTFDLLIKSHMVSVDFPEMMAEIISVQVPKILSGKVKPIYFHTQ

[6] = target: Gamma-aminobutyric acid type B receptor subunit 1 (Homo sapiens, UniProt Q9UBS5)
Gamma-aminobutyric acid type B receptor subunit 1, sequence (Q9UBS5 whole entry): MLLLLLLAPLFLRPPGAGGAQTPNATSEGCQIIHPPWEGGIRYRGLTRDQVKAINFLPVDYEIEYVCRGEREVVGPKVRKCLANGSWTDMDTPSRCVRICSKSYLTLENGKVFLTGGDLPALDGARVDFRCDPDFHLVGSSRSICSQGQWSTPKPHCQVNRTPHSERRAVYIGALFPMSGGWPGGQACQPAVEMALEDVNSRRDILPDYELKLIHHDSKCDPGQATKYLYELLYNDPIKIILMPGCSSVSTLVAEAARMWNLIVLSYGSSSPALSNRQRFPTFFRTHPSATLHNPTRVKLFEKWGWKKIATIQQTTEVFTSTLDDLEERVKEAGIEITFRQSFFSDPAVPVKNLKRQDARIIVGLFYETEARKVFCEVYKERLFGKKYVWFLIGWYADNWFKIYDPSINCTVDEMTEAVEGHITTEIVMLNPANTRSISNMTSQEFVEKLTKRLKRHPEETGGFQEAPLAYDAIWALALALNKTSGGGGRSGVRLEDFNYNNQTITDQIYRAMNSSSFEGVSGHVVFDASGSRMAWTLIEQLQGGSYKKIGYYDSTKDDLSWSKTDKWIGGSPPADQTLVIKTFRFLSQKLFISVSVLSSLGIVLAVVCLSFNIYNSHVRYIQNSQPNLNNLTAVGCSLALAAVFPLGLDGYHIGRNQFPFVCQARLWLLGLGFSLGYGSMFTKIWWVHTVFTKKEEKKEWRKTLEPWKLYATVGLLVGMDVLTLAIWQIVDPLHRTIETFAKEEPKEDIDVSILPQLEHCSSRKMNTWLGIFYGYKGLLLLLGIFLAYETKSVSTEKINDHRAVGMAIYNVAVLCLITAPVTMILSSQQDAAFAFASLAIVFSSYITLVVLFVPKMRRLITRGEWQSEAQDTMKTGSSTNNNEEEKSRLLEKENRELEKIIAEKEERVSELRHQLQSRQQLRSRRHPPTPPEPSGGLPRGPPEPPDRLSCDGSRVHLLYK
Also: assay procedure not described here.

D(1B) dopamine receptor, sequence (P21918 whole entry): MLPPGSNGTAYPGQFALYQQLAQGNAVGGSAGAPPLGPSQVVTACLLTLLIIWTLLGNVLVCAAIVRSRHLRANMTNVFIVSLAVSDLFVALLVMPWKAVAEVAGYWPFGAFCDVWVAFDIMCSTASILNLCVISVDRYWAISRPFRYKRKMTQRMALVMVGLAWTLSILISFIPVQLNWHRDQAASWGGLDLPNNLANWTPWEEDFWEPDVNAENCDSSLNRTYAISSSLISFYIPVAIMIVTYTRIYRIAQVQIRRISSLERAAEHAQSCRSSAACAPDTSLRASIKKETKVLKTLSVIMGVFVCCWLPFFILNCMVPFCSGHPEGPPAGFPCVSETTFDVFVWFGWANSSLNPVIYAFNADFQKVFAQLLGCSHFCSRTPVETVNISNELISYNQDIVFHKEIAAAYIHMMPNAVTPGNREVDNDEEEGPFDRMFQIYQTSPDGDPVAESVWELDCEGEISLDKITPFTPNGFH

## CN(C)CCCN1c2ccccc2Sc2ccccc21 [PROMAZINE]
D(1B) dopamine receptor
  AC50: 5.78 µM
D(4) dopamine receptor
  AC50: 0.551 µM
Substance-K receptor
  AC50: > 10 µM
[1]
  AC50: 0.589 µM
[2]
  AC50: 0.823 µM

## CN(CCCN1c2ccccc2CCc2ccccc21)CC(=O)c1ccc(Cl)cc1 [LOFEPRAMINE]
[3]
  AC50: > 30 µM

## C=C1C[C@@H]2[C@H](CC[C@]3(C)C(=O)CC[C@@H]23)[C@@]2(C)C=CC(=O)C=C12 [EXEMESTANE]
Histamine H1 receptor [4]
  AC50: > 30 µM
Histamine H1 receptor [5]
  AC50: > 30 µM

## CCCC(=O)N1CCCN(c2nc(N)c3cc(OC)c(OC)cc3n2)CC1 [BUNAZOSIN]
Histamine H1 receptor [4]
  AC50: > 30 µM
Histamine H1 receptor [5]
  AC50: > 30 µM
Androgen receptor
  AC50: > 30 µM

## O=C(Nc1ccccc1)OCC(CN1CCCCC1)OC(=O)Nc1ccccc1 (configuration not stated) [DIPERODON]
D(1B) dopamine receptor
  AC50: > 10 µM
D(4) dopamine receptor
  AC50: 5.2 µM
Substance-K receptor
  AC50: > 10 µM
[1]
  AC50: > 10 µM
[2]
  AC50: > 10 µM

## O=P(O)(O)C(O)(Cc1cccnc1)P(=O)(O)O [RISEDRONIC ACID]
D(4) dopamine receptor
  AC50: > 10 µM
[6]
  AC50: > 10 µM

## CC(C(O)c1ccc(O)cc1)N1CCC(Cc2ccccc2)CC1 (configuration not stated) [IFENPRODIL]
[3]
  AC50: > 30 µM

## CS(=O)(=O)Nc1cc2occ(NC=O)c(=O)c2cc1Oc1ccccc1 [IGURATIMOD]
Androgen receptor
  AC50: > 30 µM

## O=C1CCC(N2C(=O)c3ccccc3C2=O)C(=O)N1 (configuration not stated) [THALIDOMIDE]
D(4) dopamine receptor
  AC50: > 10 µM
[6]
  AC50: > 10 µM
